Data published in patent publication US7005257B1, “Detection of antibiotic resistance in microorganisms” (priority 1998, dated 2006).
Values after ≈ are worked out from the molar mass of the structure shown. Like-named read-outs stand apart in the source and are kept apart here.

How the values were obtained:
[1] = test system: P. acnes; set-up: key: HS, hypersensitive; R, resistant; S, sensitive; conditions: cited from earlier work
[2] = test system: M. pneumoniae; set-up: key: HS, hypersensitive; R, resistant; S, sensitive; conditions: cited from earlier work
[3] = test system: E. coli; set-up: key: HS, hypersensitive; R, resistant; S, sensitive; conditions: cited from earlier work
[4] = test system: H. pylori; set-up: key: HS, hypersensitive; R, resistant; S, sensitive; conditions: cited from earlier work
[5] = test system: M. intracellulare; set-up: key: HS, hypersensitive; R, resistant; S, sensitive; conditions: cited from earlier work
[6] = test system: H. pylori; assay: MIC value of conventionally characterized H. pylori isolates (clarithromycin); type: cell-based, Helicobacter pylori; set-up: MIC value: unit not given beside the values; conditions: for MIC: Helicobacter pylori
Excerpt: Evaluating the MIC value determination by in-situ hybridization using conventionally characterized H. pylori isolates.

[7] = test system: 23S rRNA; conditions: protein-free 23S rRNA extracts (Noller et al., 1992); cited from earlier work
[8] = test system: Helicobacter; conditions: cited from earlier work

For `CC[C@H]1OC(=O)[C@H](C)[C@@H](O[C@H]2C[C@@](C)(OC)[C@@H](O)[C@H](C)O2)[C@H](C)[C@@H](O[C@@H]2O[C@H](C)C[C@H](N(C)C)[C@H]2O)[C@](C)(O)C[C@@H](C)C(=O)[C@H](C)[C@@H](O)[C@]1(C)O` [erythromycin], the Phenotype ([1]; 23S rRNA mutation A2058G) is given as “Cla^R, Ery^R”, the Phenotype ([1]; 23S rRNA mutation A2059G) is given as “Cla^R, Ery^R” and the Phenotype ([1]; 23S rRNA mutation G2057A) is given as “Cla^R, Ery^R”. For the same compound, the Phenotype ([2]; 23S rRNA mutation A2058G) was “Ery^R”, the Phenotype ([2]; 23S rRNA mutation A2059G) was “Ery^R” and the Phenotype ([3]; 23S rRNA mutation A2058G) was “Ery^R”. The Phenotype ([3]; 23S rRNA mutation A2058U) was “Ery^R”, the Phenotype ([3]; 23S rRNA mutation C2611U) was “Ery^RLin^RSgb^R” and the Phenotype ([3]; 23S rRNA mutation G2032A) was “HS”. For the same compound, the Phenotype ([3]; 23S rRNA mutation G2032C) was “HS”, the Phenotype ([3]; 23S rRNA mutation G2032U) was “HS” and the Phenotype ([3]; 23S rRNA mutation G2057A) was “Ery^R, Cam^R”.

In the case of `CC[C@H]1OC(=O)[C@H](C)[C@@H](O[C@H]2C[C@@](C)(OC)[C@@H](O)[C@H](C)O2)[C@H](C)[C@@H](O[C@@H]2O[C@H](C)C[C@H](N(C)C)[C@H]2O)[C@](C)(OC)C[C@@H](C)C(=O)[C@H](C)[C@@H](O)[C@]1(C)O` [clarithromycin], the Phenotype ([4]; 23S rRNA mutation A2053C) is given as “Cla^R”, the Phenotype ([4]; 23S rRNA mutation A2053G) is given as “Cla^R” and the Phenotype ([4]; 23S rRNA mutation A2059G) is given as “Cla^R”. For the same compound, the Phenotype ([1]; 23S rRNA mutation A2058G) was “Cla^R, Ery^R”, the Phenotype ([1]; 23S rRNA mutation A2059G) was “Cla^R, Ery^R” and the Phenotype ([1]; 23S rRNA mutation G2057A) was “Cla^R, Ery^R”. For the same compound, the Phenotype ([5]; 23S rRNA mutation A2053C) was “Cla^R”, the Phenotype ([5]; 23S rRNA mutation A2058G) was “Cla^R” and the Phenotype ([5]; 23S rRNA mutation A2058U) was “Cla^R”. The MIC value ([6]; H. pylori strain FD591) was 16/32, the MIC ([6]; H. pylori strain HH531) was 48 µg/mL (≈ 64.2 µM) and the MIC ([6]; H. pylori strain KJ472) was 16 µg/mL (≈ 21.4 µM). For the same compound, the MIC ([6]; H. pylori strain MC028) was 24 µg/mL (≈ 32.1 µM), the MIC ([6]; H. pylori strain MC132) was 12 µg/mL (≈ 16 µM) and the MIC ([6]; H. pylori strain MC141) was > 256 µg/mL. For the same compound, the MIC ([6]; H. pylori strain MPS1726) was > 256 µg/mL, the MIC ([6]; H. pylori strain MPS1765) was > 256 µg/mL and the MIC ([6]; H. pylori strain MPS3137) was 96 µg/mL (≈ 128 µM). For the same compound, the MIC ([6]; H. pylori strain MPS3286) was > 256 µg/mL.

For `CO[C@@H]1[C@@H](O[C@@H]2O[C@H](C)[C@@H](O[C@H]3C[C@@](C)(O)[C@@H](OC(=O)CC(C)C)[C@H](C)O3)[C@H](N(C)C)[C@H]2O)[C@@H](CC=O)C[C@@H](C)C(=O)/C=C/[C@@H]2O[C@@H]2C[C@@H](C)OC(=O)C[C@H]1OC(C)=O` [carbomycin], the “Inhibition of in-vitro peptidyltransferase activity” value [7] is listed as “able to inhibit”.

In the case of `CCC[C@@H]1C[C@@H](C(=O)N[C@@H]([C@H]2O[C@H](SC)[C@H](O)[C@@H](O)[C@H]2O)[C@@H](C)O)N(C)C1` [lincomycin], the Phenotype ([3]; 23S rRNA mutation C2611U) is listed as “Ery^RLin^RSgb^R”.

For `O=C(N[C@H](CO)[C@H](O)c1ccc([N+](=O)[O-])cc1)C(Cl)Cl` [chloramphenicol], the Phenotype ([3]; 23S rRNA mutation A2503C) is given as “Cam^R”, the Phenotype ([3]; 23S rRNA mutation G2032A) is given as “R” and the Phenotype ([3]; 23S rRNA mutation G2032C) is given as “S”. The Phenotype ([3]; 23S rRNA mutation G2032U) was “S” and the Phenotype ([3]; 23S rRNA mutation G2057A) was “Ery^R, Cam^R”.

For `O=C([O-])c1ccccc1[O-].[Bi+3].[OH-]` [BSS], the “Effect on Helicobacter” value [8] is given as “bactericidal effect”.
